Data: patent publication US20080317723A1, “LYMPHATIC ENDOTHELIAL CELLS MATERIALS AND METHODS” (VEGENICS LIMITED, priority 2001, published 2008)

Key:
Type in all cases: cell-based, human
HMVE cells = assay: Boyden chamber cell migration assay; details: 6 h, VEGF 10 ng/ml, VEGF-C 500 ng/ml, VEGF-D 500 ng/ml, VEGF-C156S 3 μg/ml
Method: FIG. 5. VEGFR-3 mediates endothelial cell migration. The migration of HMVE cells in the presence of different VEGFs in a Boyden chamber assay. […] Data represent mean values from three independent experiments (mean±s.d.). The growth factor concentrations used are: VEGF 10 ng/ml, VEGF-C 500 ng/ml, VEGF-D 500 ng/ml and VEGF-C156S 3 μg/ml.
Cell migration assay. Migration assays were performed in a 48-well chemotaxis Boyden chamber (Neuroprobe Inc.). Eight micron Nucleopore polycarbonate filters (Corning) were coated with 100 μg/ml of collagen type I (Upstate Biotechnology) overnight at +4° C. and air dried. The filters were placed over the lower chamber wells containing the growth factors in serum-free growth medium supplemented with 0.2% BSA. For blocking experiments, VEGF and VEGF-C156S were preincubated with a ten-fold molar excess of soluble human VEGFR-3 for 30 min. HMVE cells were suspended in the growth medium and 10,000 cells in 50 μl were added to each well in the upper chamber. The cells were allowed to migrate for 6 h at 37° C. after which the filter was fixed with cold methanol and stained with hematoxylin (Meyer). Non-migrated cells on the upper surface of the filter were removed by scraping with a cotton swab and the number of migrated cells was counted. The assays were run in quadruplicate and repeated with three different batches of HMVECs.

Akt = Akt phosphorylation in HMVE cells, Western blot; details: for Akt phosphorylation at Ser473 on growth factor stimulation: HMVE cells; for time of maximal (peak) Akt phosphorylation after exposure: HMVEC, FIG. 4
Method: Western blot analysis. Endothelial cells were cultured on 35 mm dishes to near confluence, starved for 24 h in serum free medium and stimulated as indicated. Wortmannin ([…]), LY294002 ([…]), PD98059 (10-25 μM) or GF109203X (2.5-5 μM) were added 1-3 h before stimulation, where indicated. DMSO, into which the inhibitors were dissolved, was used as a control. After the stimulation, the cells were lysed in lysis buffer (50 mM HEPES, pH 7.5, 150 mM NaCl, 10 mM EDTA, 100 mM NaF, 1% TritonX-100 supplemented with 2 mM Na3VO4, 0.5 mM PMSF, 100 U/ml approtinin and 10 μg/ml leupeptin). Clarified lysates were separated by SDS-PAGE, transferred to nitrocellulose and immunoblotted using the phosphospecific antibodies for Akt-Ser473, Akt-Thr308, p42/44 MAPK-Thr202/Tyr204 or CREB-Ser133. The bound antibodies were detected using horseradish peroxidase conjugated secondary antibodies and enhanced chemiluminescence detection system. The blots were stripped and reprobed with antibodies against Akt, MAPK or CREB for quantification by reading the optical densities of the signals with Multi-Analyst 2.0.1 program (Bio-Rad).
As discussed in the background, a major signal transduction pathway by which growth factor receptors can promote cell survival employs the PI-3-kinase and its downstream target, the serine-threonine kinase Akt. The effect of the different VEGFs on Akt was analyzed by assessing Akt phosphorylation in serine 473 and threonine 308 using phosphospecific antibodies.

VEGFR-2/EpoR = assay: Ba/F3 bioassay, viability (MTT) of VEGFR-2/EpoR cells; details: FIG. 1B
Method: FIG. 1A-FIG. 1C. Analysis of the receptor-specificities of different VEGFs using the Ba/F3 bioassay. Measurement of the viability of Ba/F3 cells expressing the chimeric receptors VEGFR-1/EpoR (FIG. 1A), VEGFR-2/EpoR (FIG. 1B) or VEGFR-3/EpoR (FIG. 1C) in the presence of different VEGFs at indicated concentrations. Cell viability was determined using the MTT assay. Data represent the mean values from triplicate assays (mean±s.d.). FIG. 1D-FIG. 1G. Biosensor analysis of the interaction of VEGF-C (FIG. 1D, FIG. 1E) and VEGF-C156S (FIG. 1F, FIG. 1G) with VEGFR-3 (FIG. 1D, FIG. 1F) and VEGFR-2 (FIG. 1E, FIG. 1G). Chimeric receptor proteins were immobilized onto a carboxymethylated dextran surface. Growth factors were injected over the surface at a flow rate of 20 μl/min at the indicated concentrations. The sensorgrams shown have been subtracted with the corresponding signal obtained when the same sample was passed over a blank control channel.
Bioassay for VEGFR stimulation. […]
VEGF is an endothelial cell mitogen which has been also shown to protect endothelial cells from starvation and TNF-a induced apoptosis via activation of VEGFR-2 (Gerber et al, J. Biol. Chem., 273:30336-30343, 1998; Spyridopoulos et al., J. Mol. Cell. Cardiol., 29:1321-1330, 1997). […] The specificities of the growth factors used were determined using a cell survival bioassay. […]

Molecule | stimulation of HMVE cell migration (HMVE cells) | Akt phosphorylation at Ser473 on growth factor stimulation (Akt) | time of maximal (peak) Akt phosphorylation after exposure (Akt) [min] | survival of VEGFR-2/EpoR expressing cells (VEGFR-2/EpoR)
VEGF | ten-fold stimulation of cell migration | phosphorylated at Ser473 | 20 to 30 | able to support the survival of the VEGFR-2/EpoR expressing cells
VEGF-C156S: VEGFR-3 specific mutant form of VEGF-C, cysteine 156 changed into serine; recombinant human (Thr103 to Ile225) (protein, UniProt P49767 103-225, looked up, variant C156S) TEETIKFAAAHYNTEILKSIDNEWRKTQCMPREVCIDVGKEFGVATNTFFKPPSVSVYRCGGCCNSEGLQCMNTSTSYLSKTLFEITVPLSQGPKPVTISFANHTSCRCMSKLDVYRQVHSII | induced the migration of HMVE cells | phosphorylated at Ser473 | 30 to 40 | did not affect the survival of these cells
